Results reported in patent publication US10640495B2, “Heterocycle derivatives having TrkA inhibitory activity” (Shionogi & Co., Ltd., priority 2015, dated 2020).
Where two headings read alike, the source gives them in different places.

Target: human TrkA (Homo sapiens (Human), UniProt P04629)
Test: Human TrkA inhibition assay (Test Example 2)
Type: biochemical
Procedure, shortened: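 Mobility-shift readout of phosphorylated versus unphosphorylated fluorescent peptide gave conversion ratio, normalized to DMSO and no-enzyme wells; IC50 by logistic fit of 10- or 15-point 3-fold dilutions. Conditions: 1 nmol/L enzyme, 15 min compound preincubation, then 500 μmol/L ATP plus 1.5 μmol/L peptide, 120 min, 37 °C.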

[1] = Table 153, human TrkA inhibition, read-out: IC50
[2] = Table 154, human TrkA inhibition, read-out: IC50
[3] = Table 157, human TrkA inhibition, read-out: IC50
[4] = Table 156, human TrkA inhibition, read-out: IC50
[5] = Table 155, human TrkA inhibition, read-out: IC50
[6] = Table 152, human TrkA inhibition, read-out: IC50_nM

Chain of human TrkA (P04629 440-796): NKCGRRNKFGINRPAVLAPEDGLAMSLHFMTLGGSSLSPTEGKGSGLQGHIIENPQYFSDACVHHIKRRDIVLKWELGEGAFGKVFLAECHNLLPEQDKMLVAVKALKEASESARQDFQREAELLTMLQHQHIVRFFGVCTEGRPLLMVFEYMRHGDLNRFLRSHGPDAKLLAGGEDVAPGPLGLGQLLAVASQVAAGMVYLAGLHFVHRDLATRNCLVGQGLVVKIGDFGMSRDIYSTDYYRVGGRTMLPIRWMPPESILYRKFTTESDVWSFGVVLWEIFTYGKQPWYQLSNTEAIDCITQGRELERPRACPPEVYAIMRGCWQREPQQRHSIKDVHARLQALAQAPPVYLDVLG

Question: `COCCN1C[C@@H](NC(=O)Nc2c(C)c(-c3cccc(C(=O)O)c3)nn2-c2ccccc2)[C@H](c2ccc(F)c(F)c2)O1` (racemic) [Compound I-51] was tested. Which IC50 [1] did it give?
Answer: Its IC50 is less than 100 nM.

Question: `COCCN1C[C@@H](NC(=O)Nc2c(C)c(-c3cnc(OC)c(C(=O)N[C@@H]4CCOC4)c3)nn2-c2ccccc2)[C@H](c2ccnc(F)c2)O1` [Compound I-192] was tested. Which IC50 [2] did it give?
Answer: The IC50 was less than 100 nM.

Question: `COCCN1C[C@@H](NC(=O)Nc2c(C)c(-c3ccc(N=S(C)(C)=O)nc3)nn2-c2ccccc2)[C@H](c2ccc(F)c(F)c2)O1` [Compound I-186] was tested. Which IC50 [2] did it give?
Answer: Its IC50 is less than 100 nM.

Question: `Cc1c(-c2ccncc2)nn(-c2ccccc2)c1NC(=O)N[C@@H]1CN(CC(F)F)O[C@H]1c1ccc(F)c(F)c1` (racemic) [Compound I-630] was tested. Which IC50 [3] did it give?
Answer: The IC50 was less than 100 nM.

Question: For `COCCN1C[C@@H](NC(=O)Nc2c(C)c(-c3ccnc(C(=O)OC)c3)nn2-c2ccccc2)[C@H](c2ccc(F)c(F)c2)O1` [Compound I-557], which IC50 [4] is on record?
Answer: The IC50 was less than 100 nM.

Question: How did the IC50 [2] turn out when `COCCN1C[C@@H](NC(=O)Nc2c(C)c(-c3cnc(N4CC(O)C4)nc3)nn2-c2ccccc2)[C@H](c2ccc(F)c(F)c2)O1` [Compound I-209] was run?
Answer: Its IC50 is less than 100 nM.

Question: How did the IC50 [5] turn out when `COCCN1C[C@@H](NC(=O)Nc2c(C)c(-c3cnc4c(c3)nc(C(=O)N3CCN(C)CC3)n4C)nn2-c2ccccc2)[C@H](c2ccnc(F)c2)O1` (racemic) [Compound I-403] was run?
Answer: The IC50 was less than 100 nM.

Question: With `COCCN1C[C@@H](NC(=O)Nc2c(C)c(-c3cnn(C)c3)nn2-c2cccc(F)c2)[C@H](c2ccc(F)c(F)c2)O1` [Compound I-510] as the compound, how does the IC50 [5] read?
Answer: The IC50 was less than 100 nM.

Question: Which IC50 [4] does the source give for `COc1ncc(-c2nn(-c3ccccc3)c(NC(=O)N[C@@H]3CN(C(C)C)O[C@H]3c3ccc(F)c(F)c3)c2C)cn1` (racemic) [Compound I-527] here?
Answer: The IC50 was less than 100 nM.

Question: `COCCN1C[C@@H](NC(=O)Nc2c(C)c(-c3cnc(OC)c(C(C)(C)O)c3)nn2-c2ccccc2)[C@H](c2ccnc(F)c2)O1` (racemic) [Compound I-308] was tested. Which IC50 [2] did it give?
Answer: The IC50 was less than 100 nM.

Question: `COCCN1C[C@@H](NC(=O)Nc2c(C)c(-c3cnc4c(c3)ncn4C)nn2-c2ccccc2)[C@H](c2cccc(F)c2)O1` (racemic) [Compound I-141] was tested. Which IC50 [1] did it give?
Answer: Its IC50 is less than 100 nM.

Question: For `COCCN1C[C@@H](NC(=O)Nc2c(C)c(-c3cnc(OC)nc3)nn2-c2ccccc2)[C@H](c2ccnc(F)c2)O1` [Compound I-322], which IC50 (human TrkA 1 nmol/L, ATP 500 μmol/L, 120 min at 37° C., read-out: IC50 values (TrkA phosphorylation inhibition)) is on record?
Answer: The IC50 was 2.4 nM.

Question: With `COCCN1C[C@@H](NC(=O)Nc2c(C)c(-c3cnc4c(ccc(=O)n4C)c3)nn2-c2ccccc2)[C@H](c2ccnc(F)c2)O1` (racemic) [Compound I-246] as the compound, how does the IC50 [2] read?
Answer: The IC50 was less than 100 nM.

Question: With `COCCN1C[C@@H](NC(=O)Nc2c(C)c(-c3ccc(=O)[nH]c3)nn2-c2ccccc2)[C@H](c2ccc(F)c(F)c2)O1` (racemic) [Compound I-32] as the compound, how does the IC50 [6] read?
Answer: The IC50 was less than 100 nM.

Question: For `COCCN1C[C@@H](NC(=O)Nc2c(C)c(-c3cnc4c(c3)OCC(=O)N4)nn2-c2ccccc2)[C@H](c2cnc(F)c(F)c2)O1` (racemic) [Compound I-337], which IC50 [5] is on record?
Answer: The IC50 was less than 100 nM.

Question: With `COCCN1C[C@@H](NC(=O)Nc2c(C)c(-c3ccnc(N=S(C)(C)=O)c3)nn2-c2ccccc2)[C@H](c2ccc(F)c(F)c2)O1` (racemic) [Compound I-77] as the compound, how does the IC50 [1] read?
Answer: The IC50 was less than 100 nM.

Question: `COCCN1C[C@@H](NC(=O)Nc2c(C)c(-c3cc(-c4cn(Cc5ccc(OC)cc5)nn4)c(=O)n(C)c3)nn2-c2ccccc2)[C@H](c2ccc(F)c(F)c2)O1` [Compound I-277] was tested. Which IC50 [2] did it give?
Answer: Its IC50 is less than 100 nM.

Question: How did the IC50 [5] turn out when `COCCN1C[C@@H](NC(=O)Nc2c(C)c(OCc3cc(OC)ccn3)nn2-c2ccccc2)[C@H](c2ccnc(F)c2)O1` (racemic) [Compound I-501] was run?
Answer: The IC50 was less than 100 nM.

Question: Which IC50 [6] does the source give for `COCC[C@@H]1O[C@@H](NC(=O)Nc2c(C)c(-c3cnn(C)c3)nn2-c2ccccc2)[C@H](c2ccccc2)O1` (racemic) [Compound I-5] here?
Answer: Its IC50 is less than 100 nM.

Question: With `CCN1C[C@@H](NC(=O)Nc2c(C)c(-c3cnc4c(cnn4C)c3)nn2-c2ccccc2)[C@H](c2ccc(F)c(F)c2)O1` (racemic) [Compound I-200] as the compound, how does the IC50 [2] read?
Answer: Its IC50 is less than 100 nM.

Question: For `COCCN1C[C@@H](NC(=O)Nc2c(C)c(-c3cnc4oc(C)nc4c3)nn2-c2ccccc2)[C@H](c2ccnc(F)c2)O1` (racemic) [Compound I-596], which IC50 [3] is on record?
Answer: Its IC50 is less than 100 nM.

Question: Which IC50 [5] does the source give for `COCCN1C[C@@H](NC(=O)Nc2c(C)c(-c3cnc(N4CCN(C(=O)OCc5ccccc5)CC4)nc3)nn2-c2ccccc2)[C@H](c2ccc(F)c(F)c2)O1` [Compound I-475] here?
Answer: The IC50 was less than 100 nM.
